# In ChEMBL document CHEMBL1201862, “PubChem BioAssay data set” (2004):
#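 Protocol summary: plate cells (96-well), add compound at 5 concentrations, incubate 48 h, interpolate endpoints linearly. GI50 marks 50% less growth.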 The source made the active and inactive calls. No stated cut-off is given here; in the data, active = GI50 up to about 1.1 µM and inactive = higher.
# Tests used:
# Experiment in all cases: growth of human tumour cells (NCI), 48 h
# [1] = tested on: 786-0
# [2] = tested on: A498
# [3] = tested on: A549
# [4] = tested on: ACHN
# [5] = tested on: CCRF-CEM
# [6] = tested on: COLO 205
# [7] = tested on: DLD-1
# [8] = tested on: DMS-114
# [9] = tested on: EKVX
# [10] = tested on: HCC 2998
# [11] = tested on: HCT-116
# [12] = tested on: HCT-15
# [13] = tested on: HL-60
# [14] = tested on: HOP-18
# [15] = tested on: HOP-62
# [16] = tested on: HOP-92
# [17] = tested on: HT-29
# [18] = tested on: IGROV-1
# [19] = tested on: K562
# [20] = tested on: KM-20L2
# [21] = tested on: KM12
# [22] = tested on: LOX IMVI
# [23] = tested on: LXFL 529
# [24] = tested on: M14
# [25] = tested on: M19-MEL
# [26] = tested on: MOLT-4
# [27] = tested on: Malme-3M
# [28] = tested on: NCI-H226
# [29] = tested on: NCI-H23
# [30] = tested on: NCI-H460
# [31] = tested on: NCI-H522
# [32] = tested on: OVCAR-3
# [33] = tested on: OVCAR-5
# [34] = tested on: OVCAR-8
# [35] = tested on: RPMI-8226
# [36] = tested on: RXF 393
# [37] = tested on: SF-268
# [38] = tested on: SF-295
# [39] = tested on: SF-539
# [40] = tested on: SK-MEL-28
# [41] = tested on: SK-MEL-2
# [42] = tested on: SK-MEL-5
# [43] = tested on: SK-OV-3
# [44] = tested on: SN12C
# [45] = tested on: SNB-19
# [46] = tested on: SNB-75
# [47] = tested on: SW-620
# [48] = tested on: TK-10
# [49] = tested on: U-251
# [50] = tested on: UACC-257
# [51] = tested on: UACC-62
# [52] = tested on: UO-31
# [53] = tested on: XF498
# [54] = tested on: CAKI-1
# [55] = tested on: DMS-273
# [56] = tested on: OVCAR-4
# [57] = tested on: RXF 631
# [58] = tested on: SR
# [59] = tested on: SNB-78
smiles,measurement,setting,value
O=C1C(c2ccc(Br)cc2)=[N+]([O-])c2ccccc21,GI50,[1],17.1 µM (inactive)
same,GI50,[2],22.1 µM (inactive)
same,GI50,[3],20.9 µM (inactive)
same,GI50,[4],13.4 µM (inactive)
same,GI50,[5],4.12 µM (inactive)
same,GI50,[6],16.3 µM (inactive)
same,GI50,[7],8.51 µM (inactive)
same,GI50,[8],3.94 µM (inactive)
same,GI50,[9],16 µM (inactive)
same,GI50,[10],13.5 µM (inactive)
same,GI50,[11],14.4 µM (inactive)
same,GI50,[12],5.97 µM
same,GI50,[13],2.14 µM (inactive)
same,GI50,[14],11.9 µM (inactive)
same,GI50,[15],27 µM (inactive)
same,GI50,[16],7.21 µM (inactive)
same,GI50,[17],21.6 µM (inactive)
same,GI50,[18],17.4 µM (inactive)
same,GI50,[19],10.2 µM (inactive)
same,GI50,[20],20.7 µM (inactive)
same,GI50,[21],14.8 µM (inactive)
same,GI50,[22],8.75 µM (inactive)
same,GI50,[23],5.16 µM (inactive)
same,GI50,[24],16.3 µM (inactive)
same,GI50,[25],9.62 µM (inactive)
same,GI50,[26],4.79 µM (inactive)
same,GI50,[27],18.4 µM (inactive)
same,GI50,[28],13.1 µM (inactive)
same,GI50,[29],15.8 µM (inactive)
same,GI50,[30],16.9 µM (inactive)
same,GI50,[31],2.45 µM (inactive)
same,GI50,[32],14.9 µM (inactive)
same,GI50,[33],20.8 µM (inactive)
same,GI50,[34],10.2 µM (inactive)
same,GI50,[35],3.88 µM (inactive)
same,GI50,[36],16.9 µM (inactive)
same,GI50,[37],17.6 µM (inactive)
same,GI50,[38],> 10 µM (inactive)
same,GI50,[39],20.5 µM (inactive)
same,GI50,[40],20.2 µM (inactive)
same,GI50,[41],11.7 µM (inactive)
same,GI50,[42],9.55 µM (inactive)
same,GI50,[43],55.1 µM (inactive)
same,GI50,[44],15.5 µM (inactive)
same,GI50,[45],21 µM (inactive)
same,GI50,[46],16.6 µM (inactive)
same,GI50,[47],26.1 µM (inactive)
same,GI50,[48],15.9 µM (inactive)
same,GI50,[49],14.7 µM (inactive)
same,GI50,[50],11.3 µM (inactive)
same,GI50,[51],16 µM (inactive)
same,GI50,[52],14.3 µM (inactive)
same,GI50,[53],17.5 µM (inactive)
CC(=O)C1=C(C)Cn2c(=O)c3ccccc3c(=O)n2C1,GI50,[1],> 100 µM (inactive)
same,GI50,[2],82 µM (inactive)
same,GI50,[3],> 100 µM (inactive)
same,GI50,[4],> 100 µM (inactive)
same,GI50,[54],> 100 µM (inactive)
same,GI50,[5],> 100 µM (inactive)
same,GI50,[6],> 100 µM (inactive)
same,GI50,[7],> 100 µM (inactive)
same,GI50,[8],> 100 µM (inactive)
same,GI50,[55],> 100 µM (inactive)
same,GI50,[9],> 100 µM (inactive)
same,GI50,[10],> 100 µM (inactive)
same,GI50,[11],> 100 µM (inactive)
same,GI50,[12],> 100 µM
same,GI50,[13],> 100 µM (inactive)
same,GI50,[15],> 100 µM (inactive)
same,GI50,[16],> 100 µM (inactive)
same,GI50,[17],> 100 µM (inactive)
same,GI50,[18],> 100 µM (inactive)
same,GI50,[19],> 100 µM (inactive)
same,GI50,[20],> 100 µM (inactive)
same,GI50,[21],> 100 µM (inactive)
same,GI50,[22],> 100 µM (inactive)
same,GI50,[23],> 100 µM (inactive)
same,GI50,[24],> 100 µM (inactive)
same,GI50,[25],> 100 µM (inactive)
same,GI50,[26],> 100 µM (inactive)
same,GI50,[27],> 100 µM (inactive)
same,GI50,[28],> 100 µM (inactive)
same,GI50,[29],> 100 µM (inactive)
same,GI50,[30],> 100 µM (inactive)
same,GI50,[31],> 100 µM (inactive)
same,GI50,[32],> 100 µM (inactive)
same,GI50,[56],> 100 µM (inactive)
same,GI50,[33],> 100 µM (inactive)
same,GI50,[34],> 100 µM (inactive)
same,GI50,[35],> 100 µM (inactive)
same,GI50,[36],> 100 µM (inactive)
same,GI50,[57],> 100 µM (inactive)
same,GI50,[37],> 100 µM (inactive)
same,GI50,[38],> 100 µM (inactive)
same,GI50,[39],> 100 µM (inactive)
same,GI50,[40],> 100 µM (inactive)
same,GI50,[41],> 100 µM (inactive)
same,GI50,[42],> 100 µM (inactive)
same,GI50,[43],> 100 µM (inactive)
same,GI50,[44],> 100 µM (inactive)
same,GI50,[45],> 100 µM (inactive)
same,GI50,[46],> 100 µM (inactive)
same,GI50,[58],> 100 µM (inactive)
same,GI50,[47],> 100 µM (inactive)
same,GI50,[48],> 100 µM (inactive)
same,GI50,[49],> 100 µM (inactive)
same,GI50,[50],> 100 µM (inactive)
same,GI50,[52],> 100 µM (inactive)
c1ccc2c(c1)Sc1ccccc1N2C1CN2CCC1CC2 (configuration not stated),GI50,[1],13 µM (inactive)
same,GI50,[2],8.36 µM (inactive)
same,GI50,[3],16.7 µM (inactive)
same,GI50,[4],16.9 µM (inactive)
same,GI50,[54],17.2 µM (inactive)
same,GI50,[5],16.5 µM (inactive)
same,GI50,[6],16.8 µM (inactive)
same,GI50,[7],15.8 µM (inactive)
same,GI50,[8],17.9 µM (inactive)
same,GI50,[55],16.4 µM (inactive)
same,GI50,[9],13 µM (inactive)
same,GI50,[10],14.5 µM (inactive)
same,GI50,[11],15.5 µM (inactive)
same,GI50,[12],16.8 µM
same,GI50,[13],14.9 µM (inactive)
same,GI50,[14],18.2 µM (inactive)
same,GI50,[15],12.9 µM (inactive)
same,GI50,[17],17.3 µM (inactive)
same,GI50,[18],18.9 µM (inactive)
same,GI50,[19],13.7 µM (inactive)
same,GI50,[20],15.2 µM (inactive)
same,GI50,[21],15.2 µM (inactive)
same,GI50,[22],10.9 µM (inactive)
same,GI50,[23],16.9 µM (inactive)
same,GI50,[25],16 µM (inactive)
same,GI50,[26],12.8 µM (inactive)
same,GI50,[27],16.3 µM (inactive)
same,GI50,[28],4.09 µM (inactive)
same,GI50,[29],24.5 µM (inactive)
same,GI50,[30],16.1 µM (inactive)
same,GI50,[31],18.8 µM (inactive)
same,GI50,[32],15.8 µM (inactive)
same,GI50,[56],17.7 µM (inactive)
same,GI50,[33],> 10 µM (inactive)
same,GI50,[34],16.4 µM (inactive)
same,GI50,[35],23.1 µM (inactive)
same,GI50,[37],16.4 µM (inactive)
same,GI50,[38],15.3 µM (inactive)
same,GI50,[39],14 µM (inactive)
same,GI50,[40],15.8 µM (inactive)
same,GI50,[41],4.46 µM (inactive)
same,GI50,[42],15.6 µM (inactive)
same,GI50,[43],19.5 µM (inactive)
same,GI50,[44],14.2 µM (inactive)
same,GI50,[45],18.8 µM (inactive)
same,GI50,[46],6 µM (inactive)
same,GI50,[59],14.4 µM (inactive)
same,GI50,[47],16.4 µM (inactive)
same,GI50,[48],14 µM (inactive)
same,GI50,[49],15.6 µM (inactive)
same,GI50,[50],15.5 µM (inactive)
same,GI50,[51],15.2 µM (inactive)
same,GI50,[52],16.7 µM (inactive)
same,GI50,[53],13.9 µM (inactive)
